Data published in ChEMBL document CHEMBL1201862, “PubChem BioAssay data set” (2004).
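Five concentrations, 48 hours, 96-well plates. GI50: concentration for 50% inhibition of growth.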 Active and inactive are the calls of the source. No stated cut-off is given here; in the data, active = GI50 up to about 1.1 µM and inactive = higher.

Experiments:
Test in all cases: growth of human tumour cells (NCI), 48 h
[1] = system: ACHN
[2] = system: SR
[3] = system: RPMI-8226
[4] = system: IGROV-1
[5] = system: EKVX
[6] = system: HOP-62
[7] = system: UO-31
[8] = system: MDA-MB-231
[9] = system: OVCAR-3
[10] = system: TK-10
[11] = system: OVCAR-5
[12] = system: DU-145
[13] = system: HCT-15
[14] = system: M14
[15] = system: HL-60
[16] = system: PC-3
[17] = system: HT-29
[18] = system: NCI-H23
[19] = system: SK-OV-3
[20] = system: SNB-75
[21] = system: SW-620
[22] = system: SF-295
[23] = system: 786-0
[24] = system: COLO 205
[25] = system: HOP-92
[26] = system: Malme-3M
[27] = system: KM12
[28] = system: T47D
[29] = system: CCRF-CEM
[30] = system: CAKI-1
[31] = system: Hs-578T
[32] = system: U-251
[33] = system: UACC-62
[34] = system: SK-MEL-2
[35] = system: MDA-MB-435
[36] = system: SF-539
[37] = system: NCI-H226
[38] = system: OVCAR-4
[39] = system: NCI/ADR-RES
[40] = system: A549
[41] = system: SK-MEL-28
[42] = system: HCT-116
[43] = system: SK-MEL-5
[44] = system: MOLT-4
[45] = system: OVCAR-8
[46] = system: SNB-19
[47] = system: SN12C
[48] = system: NCI-H522
[49] = system: MCF7
[50] = system: K562
[51] = system: NCI-H460
[52] = system: SF-268
[53] = system: UACC-257
[54] = system: RXF 393
[55] = system: LOX IMVI
[56] = system: BT-549
[57] = system: HCC 2998
[58] = system: A498

Which results are given for `CCOc1nc(N)nc(C)c1/N=N/c1ccc(Cl)cc1`?
GI50 [1]: > 100 µM (inactive); GI50 [2]: 1.86 µM (inactive); GI50 [3]: 25.9 µM (inactive); GI50 [4]: > 100 µM (inactive); GI50 [5]: 51.6 µM (inactive); GI50 [6]: > 100 µM (inactive); GI50 [7]: 45 µM (inactive); GI50 [8]: > 100 µM (inactive); GI50 [9]: > 100 µM (inactive); GI50 [10]: > 100 µM (inactive); GI50 [11]: > 100 µM (inactive); GI50 [12]: > 100 µM (inactive); GI50 [13]: > 100 µM; GI50 [14]: > 100 µM (inactive); GI50 [15]: > 100 µM (inactive); GI50 [16]: 82.8 µM (inactive); GI50 [17]: > 100 µM (inactive); GI50 [18]: > 100 µM (inactive); GI50 [19]: > 100 µM (inactive); GI50 [20]: > 100 µM (inactive); GI50 [21]: > 100 µM (inactive); GI50 [22]: 25.5 µM (inactive); GI50 [23]: > 100 µM (inactive); GI50 [24]: > 100 µM (inactive); GI50 [25]: 13.7 µM (inactive); GI50 [26]: 34.4 µM (inactive); GI50 [27]: > 100 µM (inactive); GI50 [28]: 73.8 µM (inactive); GI50 [29]: 41.3 µM (inactive); GI50 [30]: > 100 µM (inactive); GI50 [31]: 0.124 µM (active); GI50 [32]: > 100 µM (inactive); GI50 [33]: 94.4 µM (inactive); GI50 [34]: > 100 µM (inactive); GI50 [35]: > 100 µM (inactive); GI50 [36]: 36.9 µM (inactive); GI50 [37]: 20.6 µM (inactive); GI50 [38]: > 100 µM (inactive); GI50 [39]: > 100 µM (inactive); GI50 [40]: > 100 µM (inactive); GI50 [41]: > 100 µM (inactive); GI50 [42]: > 100 µM (inactive); GI50 [43]: 0.649 µM (active); GI50 [44]: 10.7 µM (inactive); GI50 [45]: > 100 µM (inactive); GI50 [46]: > 100 µM (inactive); GI50 [47]: 14.1 µM (inactive); GI50 [48]: 69.7 µM (inactive); GI50 [49]: > 100 µM (inactive); GI50 [50]: 48.5 µM (inactive); GI50 [51]: > 100 µM (inactive); GI50 [52]: > 100 µM (inactive); GI50 [53]: > 100 µM (inactive); GI50 [54]: > 100 µM (inactive); GI50 [55]: > 100 µM (inactive); GI50 [56]: 59 µM (inactive)

Which GI50 [1] does the source give for `COC(=O)C1=C(C(=O)OC)C2(C)C=CC1O2` (configuration not stated) here?
The GI50 was 5.78 µM (inactive).

And the GI50 [3]?
The GI50 was 1.91 µM (inactive).

And the GI50 [4]?
Its GI50 is 19.4 µM (inactive).

And the GI50 [5]?
The GI50 was 22 µM (inactive).

And the GI50 [6]?
Its GI50 is 34.9 µM (inactive).

And the GI50 [7]?
Its GI50 is 4.51 µM (inactive).

And the GI50 [8]?
The GI50 was 16.6 µM (inactive).

What about the GI50 [9] of the same compound?
The GI50 was 0.55 µM (active).

What about the GI50 [10] of the same compound?
The GI50 was 2.49 µM (inactive).

And the GI50 [11]?
Its GI50 is 17.6 µM (inactive).

What about the GI50 [12] of the same compound?
The GI50 was 17.9 µM (inactive).

And the GI50 [13]?
Its GI50 is 16 µM.

And the GI50 [14]?
Its GI50 is 17.3 µM (inactive).

What about the GI50 [16] of the same compound?
Its GI50 is 21.4 µM (inactive).

What about the GI50 [17] of the same compound?
The GI50 was 15.2 µM (inactive).

And the GI50 [18]?
Its GI50 is 17.8 µM (inactive).

And the GI50 [57]?
Its GI50 is 16.2 µM (inactive).

And the GI50 [19]?
Its GI50 is > 100 µM (inactive).

And the GI50 [20]?
Its GI50 is 24.3 µM (inactive).

What about the GI50 [21] of the same compound?
The GI50 was 4.68 µM (inactive).

What about the GI50 [23] of the same compound?
The GI50 was 3.78 µM (inactive).

And the GI50 [24]?
Its GI50 is 4.22 µM (inactive).

What about the GI50 [25] of the same compound?
Its GI50 is 5.01 µM (inactive).

What about the GI50 [26] of the same compound?
Its GI50 is 2.92 µM (inactive).

What about the GI50 [28] of the same compound?
Its GI50 is 3.44 µM (inactive).

What about the GI50 [31] of the same compound?
The GI50 was 26.4 µM (inactive).

What about the GI50 [32] of the same compound?
The GI50 was 18 µM (inactive).

What about the GI50 [33] of the same compound?
The GI50 was 17.6 µM (inactive).

What about the GI50 [34] of the same compound?
Its GI50 is 21.4 µM (inactive).

And the GI50 [35]?
Its GI50 is 19.1 µM (inactive).

What about the GI50 [36] of the same compound?
The GI50 was 18.9 µM (inactive).

And the GI50 [37]?
The GI50 was 19.6 µM (inactive).

And the GI50 [38]?
Its GI50 is 13.1 µM (inactive).

What about the GI50 [39] of the same compound?
The GI50 was 19.6 µM (inactive).

What about the GI50 [40] of the same compound?
Its GI50 is 99.8 µM (inactive).

And the GI50 [58]?
The GI50 was 23.7 µM (inactive).

What about the GI50 [41] of the same compound?
Its GI50 is 16 µM (inactive).

And the GI50 [42]?
The GI50 was 10.5 µM (inactive).

And the GI50 [43]?
The GI50 was 18.5 µM (inactive).

What about the GI50 [45] of the same compound?
The GI50 was 17.4 µM (inactive).

And the GI50 [46]?
Its GI50 is > 100 µM (inactive).

And the GI50 [47]?
Its GI50 is 17.5 µM (inactive).

What about the GI50 [48] of the same compound?
The GI50 was 2 µM (inactive).

What about the GI50 [49] of the same compound?
Its GI50 is 31.5 µM (inactive).

What about the GI50 [50] of the same compound?
The GI50 was 4.52 µM (inactive).

What about the GI50 [51] of the same compound?
The GI50 was > 100 µM (inactive).

And the GI50 [52]?
Its GI50 is 31 µM (inactive).

What about the GI50 [53] of the same compound?
The GI50 was 15.9 µM (inactive).

What about the GI50 [54] of the same compound?
Its GI50 is 20.9 µM (inactive).

What about the GI50 [55] of the same compound?
The GI50 was 16.7 µM (inactive).

What about the GI50 [56] of the same compound?
The GI50 was 23.1 µM (inactive).
